Laboratory results: ChEMBL document CHEMBL1156449, “The nucleoside analog sangivamycin induces apoptotic cell death in breast carcinoma MCF7/adriamycin-resistant cells via protein kinase Cdelta and JNK activation” (J Biol Chem, 2007)
Active and inactive are the calls of the source. No cut-off for these calls is given here.

Key:
MCF/WT [1] = experiment: Induction of apoptosis in human drug-sensitive MCF/WT cells assessed as activation of caspase 6 at 0.3 uM by immunoblot analysis; format: functional, cell-based
MCF/ADR [2] = experiment: Reduction of lamin A cleavage in human multidrug resistant MCF/ADR cells transfected with c-Jun siRNA at 0.3 uM after 48 hrs by immunoblot analysis; format: functional, cell-based
[3] = biological target: Bcl-2-like protein 1 (Homo sapiens) (UniProt Q07817); experiment: Inhibition of induction of Bcl-x/s phosphorylation in human multidrug resistant MCF/ADR cells at 0.3 uM after 48 hrs in presence of rottlerin; format: functional, cell-based
MCF/ADR [4] = experiment: Cytocidal effect in human multidrug resistant MCF/ADR cells assessed as decrease in number of viable cells at 30 nM after 6 days by MTT colorimetric assay; format: functional, cell-based
MCF/WT [5] = experiment: Cytostatic effect in human drug sensitive MCF/WT cells assessed as slight increase in number of viable cells at 30 nM after 6 days by MTT colorimetric assay; format: functional, cell-based
MCF/ADR [6] = experiment: Induction of apoptosis in human multidrug resistant MCF/ADR cells assessed as accumulation of PARP at 0.3 uM after 48 hrs by immunoblot analysis; format: functional, cell-based
MCF/WT [7] = experiment: Increase in Bcl-x/l levels in human drug-sensitive MCF/WT cells at 0.3 uM by immunoblot analysis; format: functional, cell-based
MCF/WT [8] = experiment: Increase in wild-type full length p53 accumulation in human drug-sensitive MCF/WT cells at 0.3 uM by immunoblot analysis; format: functional, cell-based
MCF/ADR [9] = experiment: Inhibition of induction of apoptosis in human multidrug resistant MCF/ADR cells assessed as inhibition of cleavage of PARP at 0.3 uM after 48 hrs by immunoblot analysis in presence of pan-specific inhibitor; format: functional, cell-based
[10] = Cell cycle arrest in human drug-sensitive MCF/WT cells assessed as accumulation at G0/G1 phase at 0.3 uM after 24 hrs by propidium fluorescence flow cytometry; format: functional, cell-based
MCF/WT [11] = experiment: Cytostatic effect in human drug sensitive MCF/WT cells assessed as slight increase in number of viable cells at 0.1 uM after 1 hr measured after 72 hrs in absence of drug by MTT colorimetric assay; format: functional, cell-based
MCF/ADR [12] = experiment: Increase in Bcl-2 levels in human multidrug resistant MCF/ADR cells at 0.3 uM by immunoblot analysis; format: functional, cell-based
MCF/ADR [13] = experiment: Increase in Bcl-x/l levels in human multidrug resistant MCF/ADR cells at 0.3 uM by immunoblot analysis; format: functional, cell-based
MCF/ADR [14] = experiment: Increase in Bax levels in human multidrug resistant MCF/ADR cells at 0.3 uM by immunoblot analysis; format: functional, cell-based
MCF/ADR [15] = experiment: Induction of apoptosis in human multidrug resistant MCF/ADR cells assessed as annexin V binding to phosphatidylserine at 0.3 uM after 6 hrs; format: functional, cell-based
[16] = Cell cycle arrest in human multidrug resistant MCF/ADR cells assessed as accumulation at sub G0/G1 phase at 0.3 uM after 24 hrs by propidium fluorescence flow cytometry; format: functional, cell-based
[17] = Cell cycle arrest in human multidrug resistant MCF/ADR cells assessed as accumulation at G2/M phase at 0.3 uM after 48 hrs by propidium fluorescence flow cytometry; format: functional, cell-based
MCF/ADR [18] = experiment: Reduction in induction of apoptosis in SP600125 pretreated human multidrug resistant MCF/ADR cells assessed as reduction of cleavage of PARP at 0.3 uM after 48 hrs by immunoblot analysis; format: functional, cell-based
MCF/ADR [19] = experiment: Induction of c-Jun expression in human multidrug resistant MCF/ADR cells at 0.3 uM; format: functional, cell-based
[20] = biological target: Transcription factor Jun (Homo sapiens) (UniProt P05412); experiment: Reduction in induction of phosphorylated form of c-Jun in SP600125 pretreated human multidrug resistant MCF/ADR cells at 0.3 uM after 48 hrs by immunoblot analysis; format: cell-based
[21] = Inhibition of nuclear protein kinase 2
[22] = Cell cycle arrest in human drug-sensitive MCF/WT cells assessed as accumulation at G2/M phase at 0.3 uM after 48 hrs by propidium fluorescence flow cytometry; format: functional, cell-based
MCF/ADR [23] = experiment: Reduction in induction of apoptosis in SP600125 pretreated human multidrug resistant MCF/ADR cells assessed as reduction of cleavage of lamin A at 0.3 uM after 48 hrs by immunoblot analysis; format: functional, cell-based

Bcl-2-like protein 1 (Homo sapiens), sequence (Q07817 whole entry): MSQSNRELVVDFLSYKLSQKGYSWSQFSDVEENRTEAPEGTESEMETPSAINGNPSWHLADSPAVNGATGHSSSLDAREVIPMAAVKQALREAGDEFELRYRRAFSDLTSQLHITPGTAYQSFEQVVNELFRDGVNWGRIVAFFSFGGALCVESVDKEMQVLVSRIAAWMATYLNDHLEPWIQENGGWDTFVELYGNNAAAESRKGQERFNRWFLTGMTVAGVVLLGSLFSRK
Transcription factor Jun (Homo sapiens), sequence (P05412 whole entry): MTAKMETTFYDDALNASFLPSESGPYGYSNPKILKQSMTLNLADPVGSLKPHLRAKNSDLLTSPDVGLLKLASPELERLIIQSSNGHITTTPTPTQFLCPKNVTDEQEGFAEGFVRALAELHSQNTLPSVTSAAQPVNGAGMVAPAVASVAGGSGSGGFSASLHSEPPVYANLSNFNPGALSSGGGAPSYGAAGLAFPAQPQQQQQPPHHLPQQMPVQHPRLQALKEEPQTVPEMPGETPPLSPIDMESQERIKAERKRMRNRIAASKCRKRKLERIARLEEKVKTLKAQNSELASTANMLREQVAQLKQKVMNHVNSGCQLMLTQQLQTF

In the case of `NC(=O)c1cn([C@@H]2O[C@H](CO)[C@@H](O)[C@H]2O)c2ncnc(N)c12` [SANGIVAMYCIN], the Activity (MCF/WT [1]) is reported as “inactive”, the Activity (MCF/ADR [2]) is reported as “inactive” and the Activity [3] is reported as “Active”. The Activity (MCF/ADR [4]) was “Active”, the Activity (MCF/WT [5]) was “Active” and the Activity (MCF/ADR [6]) was “Active”. For the same compound, the Activity (MCF/WT [7]) was “Active”, the Activity (MCF/WT [8]) was “Active” and the Activity (MCF/ADR [9]) was “Active”. For the same compound, the Activity [10] was 48%, the Activity (MCF/WT [11]) was “Active” and the Activity (MCF/ADR [12]) was “inactive”. For the same compound, the Activity (MCF/ADR [13]) was “Active”, the Activity (MCF/ADR [14]) was “Active” and the Activity (MCF/ADR [15]) was “Active”. The Activity [16] was 9%, the Activity [17] was 17% and the Activity (MCF/ADR [18]) was “Active”. For the same compound, the Activity (MCF/ADR [19]) was “Active”, the Activity [20] was “Active” and the Ki [21] was 100 µM. For the same compound, the Activity [22] was 27% and the Activity (MCF/ADR [23]) was “Active”.
